Like-named read-outs stand apart in the source and are kept apart here.
Legend:
[1] = test system: NiV (Malaysian genotype); details: cited from earlier work
[2] = test system: RAVV (Ravn variant); assay type: cell-based, Ravn virus
[3] = test system: recombinant EBOV (Mayinga variant); assay type: cell-based, Ebola virus; details: read-out: Approximate EC50 against recombinant reporter EBOV variants
[4] = test system: HeV; details: cited from earlier work

Compound	EC50 [1]	Reduction of infectious RAVV titers ([2]; at 50 μM)	EC50 [3]	EC50 [4]	Reduction of infectious RAVV titers [2]
[N-]=[N+]=N[C@]1(CO)O[C@@H](n2ccc(N)nc2=O)[C@H](O)[C@@H]1O [R1479, 4′-azidocytidine]	1500 nM	over 4 orders of magnitude	~2000 nM	2400 nM	
2′-monofluoro-4′-azidocytidine [2′F-4′N3-C]			3000 to 8000 nM		roughly 1.5 orders of magnitude

From publication PMC6066796 (Antiviral Research, 2018)
